# Like-named read-outs stand apart in the source and are kept apart here.
# Assays:
# [1] = target: Escherichia coli DNA gyrase A/B tetramer (Escherichia coli (strain K12), UniProt P0AES4+P0AES6); test: DNA gyrase supercoiling activity fluorescence polarisation assay; format: biochemical; details: Eco Gyr FP Mean IC50, E. coli DNA gyrase supercoiling, 0.3 mM ATP
# Protocol: In a black, 384-well polystyrene assay plate, 30 microliters/well of 5 nM Escherichia coli DNA gyrase A/B tetramer and 130 micrograms/mL of topologically relaxed plasmid containing the triplex-forming sequence
# in an assay buffer consisting of 35 mM Tris-HCl (pH 7.5), 24 mM KCl, 4 mM MgCl2, 2 mM dithiothreitol, 1.8 mM spermidine, 5% (v/v) glycerol, 200 nM bovine serum albumin, 0.8% dimethylsulfoxide, and 0.3 mM ATP were incubated at ambient temperature for (typically 30 minutes) in the absence or presence of 5-10 different concentrations of test compound. The supercoiling reactions were quenched by the addition of 10 microliters/well of 40 nM oligodeoxynucleotide probe in 3× triplex-forming buffer consisting of 150 mM NaCl, and 150 mM sodium acetate at pH 3.5. The oligodeoxynucleotide probe was 5′-BODIPY-FL-labeled
# After 60 minutes, the fluorescence anisotropy of the BODIPY-FL was measured in a Tecan Ultra plate reader, using 485 nm excitation and 535 nm emission filters equipped with polarizers. The IC50 was determined by nonlinear regression using two control reactions.
# Streptococcus pneumoniae = test: Susceptibility testing (MIC) Assay 1, broth microdilution; format: cell-based
# Protocol: (§1) Minimum Inhibitory Concentrations (MICs) were determined by the broth microdilution method in accordance with the Clinical and Laboratory Standards Institute (CLSI) guidelines. In brief, organism suspensions were adjusted to a 0.5 McFarland standard to yield a final inoculum between 3×10^5 and 7×10^5 colony-forming units (CFU)/mL. Bacterial inocula were prepared for most organisms in sterile, cation adjusted Mueller-Hinton Broth (Beckton Dickinson). The streptococci were prepared as above in cation adjusted Mueller-Hinton Broth to which 2.5% lysed horse blood (Hema Resource & Supply Inc.) was added. An inoculum volume of 100 μL was added to wells (using a Tecan EVO robot) containing 2 μL of DMSO containing 2-fold serial dilutions of drug. All inoculated microdilution trays were incubated in ambient air at 35° C. for 18-24 hours. Following incubation, the lowest concentration of the drug that prevented visible growth as read at OD600 nm and confirmed by a visual read using a test reading mirror was recorded as the MIC. Performance of the assay was monitored by the use of laboratory quality-control strains and commercially available control compounds with defined MIC spectrums, in accordance with CLSI guidelines. Table 1 provides the MIC results (μM) of Examples 1-77 tested in Assay 1. Table 2 provides the MIC (μg/mL) results of Examples 78-80 tested in Assay 1.
# Staphylococcus aureus = test: as above; format: cell-based; details: Staphylococcus aureus
# Protocol: as §1
# Streptococcus pyogenes = test: as above; format: cell-based; details: Streptococcus pyogenes, Streptococcus pyrgenes, in vivo strain; read-out: Spy MIC
# Protocol: as §1
# Escherichia coli = test: Susceptibility testing (MIC) Assay 2, broth microdilution; format: cell-based; details: K12, read-out: Eco MIC
# Protocol: (§2) Minimum Inhibitory Concentrations (MICs) were determined by the broth microdilution method in accordance with the Clinical and Laboratory Standards Institute (CLSI) guidelines. In brief, organism suspensions were adjusted to a 0.5 McFarland standard to yield a final inoculum between 3×10^5 and 7×10^5 colony-forming units (CFU)/mL. Bacterial inocula were generally prepared in sterile, cation adjusted Mueller-Hinton Broth (Becton Dickinson) which included Escherichia coli, Klebsiella pneumoniae, and Pseudomonas aeruginosa. Haemophilus influenzae bacterial inocula were prepared in sterile, cation adjusted Mueller-Hinton Broth (Becton Dickinson) containing 0.5% yeast extract (Becton Dickinson) plus 30 mL of 15 μg/mL Bovine Hematin stock (Sigma), and 3 mL of 15 μg/mL β-nicotinamide adenine dinucleotide (Sigma). Strains of Neisseria were tested for MICs using agar dilution methodology in accordance with CLSI guidelines. For broth microdilution testing, an inoculum volume of 100 μL was added to wells (using a Tecan EVO robot) containing 2 μL of DMSO containing 2-fold serial dilutions of drug. All inoculated microdilution panels were incubated in ambient air at 35° C. for 18-24 hours. Following incubation, the lowest concentration of the drug that prevented visible growth as read at OD600 nm and confirmed by a visual read using a test reading mirror was recorded as the MIC. Performance of the assay was monitored by the use of laboratory quality-control strains and commercially available control compounds with defined MIC spectrums, in accordance with CLSI guidelines. Table 3 provides the MIC results (μM) of Examples 1-77 tested in Assay 2. Table 4 provides the MIC (μg/mL) results of Examples 78-80 tested in Assay 2.
# Haemophilus influenzae = test: as above; format: cell-based; details: ATCC51907, Haemophilus influenzae, ATCC 51907, in vivo strain, read-out: Hin MIC
# Protocol: as §2
# Pseudomonas aeruginosa = test: as above; format: cell-based; details: PAO1, read-out: Pae MIC
# Protocol: as §2
# Klebsiella pneumoniae = test: as above; format: cell-based; details: clinical isolate, mucoid, read-out: Kpn MIC
# Protocol: as §2
# [2] = in vivo strain (footnote b), read-out: Spn(b) MIC
# [3] = in vivo strain (footnote c), read-out: Spn(c) MIC
# [4] = Staphylococcus aureus in vivo strain, MSQS, read-out: Sau(d) MIC
# [5] = in vivo strain, MRQR, read-out: Sau(e) MIC
SMILES,IC50 [1] [nM],MIC (Streptococcus pneumoniae; [2]) [µM],MIC (Streptococcus pneumoniae; [3]) [µM],MIC (Staphylococcus aureus; [4]) [µM],MIC (Staphylococcus aureus; [5]) [µM],"MIC (Staphylococcus aureus; serum, read-out: Sau(f) MIC) [µM]",MIC (Streptococcus pyogenes) [µM],MIC (Escherichia coli) [µM],MIC (Haemophilus influenzae) [µM],MIC (Pseudomonas aeruginosa) [µM],MIC (Klebsiella pneumoniae) [µM]
"C[C@@H]1CN2c3c(cc4c(N5C(=O)OC[C@H]5CF)noc4c3F)CC3(C(=O)NC(=O)NC3=O)[C@H]2[C@H](C)O1 [Example 16, (2R,4S,4aS)-11-Fluoro-8-[(4S)-4-(fluoromethyl)-2-oxo-1,3-oxazolidin-3-yl]-2,4-dimethyl-1,2,4,4a-tetrahydro-2′H,6H-spiro[1,4-oxazino[4,3-a][1,2]oxazolo[4,5-g]quinoline-5,5′-pyrimidine]-2′,4′,6′(1′H,3′H)-trione]",190,0.39,0.39,0.39,1.6,1.6,0.39,25,0.78,> 200,200
"COC[C@@H]1COC(=O)N1c1noc2c(F)c3c(cc12)CC1(C(=O)NC(=O)NC1=O)[C@H]1[C@H](C)O[C@H](C)CN31 [Example 18, (2R,4S,4aS)-11-fluoro-8-[(4R)-4-(methoxymethyl)-2-oxo-1,3-oxazolidin-3-yl]-2,4-dimethyl-1,2,4,4a-tetrahydro-2′H,6H-spiro[1,4-oxazino[4,3-a][1,2]oxazolo[4,5-g]quinoline-5,5′-pyrimidine]-2′,4′,6′(1′H,3′H)-trione]",810,3.1,6.2,3.1,6.2,12,12,> 200,3.1,> 200,> 200
C[C@@H]1CN2c3c(cc4c(N5C[C@@H](CF)OC5=O)noc4c3F)CC3(C(=O)NC(=O)NC3=O)[C@H]2[C@H](C)O1 [Example 19],160,< 0.2,0.24,0.14,0.78,0.28,< 0.2,8.8,0.28,> 200,200
COC[C@@H]1CN(c2noc3c(Cl)c4c(cc23)CC2(C(=O)NC(=O)NC2=O)[C@H]2[C@H](C)O[C@H](C)CN42)C(=O)O1 [Example 20],420,0.28,0.28,0.28,1.1,0.39,0.28,25,0.39,> 200,> 200
"COC[C@H]1CN(c2noc3c(Cl)c4c(cc23)CC2(C(=O)NC(=O)NC2=O)[C@H]2[C@H](C)O[C@H](C)CN42)C(=O)O1 [Example 21, (2R,4S,4aS)-11-Chloro-8-[(5R)-4-(methoxymethyl)-2-oxo-1,3-oxazolidin-3-yl]-2,4-dimethyl-1,2,4,4a-tetrahydro-2′H,6H-spiro[1,4-oxazino[4,3-a][1,2]oxazolo[4,5-g]quinoline-5,5′-pyrimidine]-2′,4′,6′(1′H,3′H)-trione]",540,1.6,1.6,0.78,3.1,3.1,0.78,50,1.6,> 200,200
C[C@@H]1CN(c2noc3c(Cl)c4c(cc23)CC2(C(=O)NC(=O)NC2=O)[C@H]2[C@H](C)O[C@H](C)CN42)C(=O)O1 [Example 22],210,0.39,0.39,< 0.2,0.78,0.78,0.39,12,0.78,> 200,200
C[C@@H]1CN2c3c(cc4c(N5C(=O)O[C@H](C)[C@@H]5C)noc4c3F)CC3(C(=O)NC(=O)NC3=O)[C@H]2[C@H](C)O1 [Example 23],520,0.78,0.78,0.39,0.78,0.78,0.39,6.2,0.39,> 200,100
C[C@@H]1CN2c3c(cc4c(N5C(=O)O[C@@H](C)[C@H]5C)noc4c3F)CC3(C(=O)NC(=O)NC3=O)[C@H]2[C@H](C)O1 [Example 24],> 2100,1.6,1.6,0.39,1.6,1.6,0.78,50,3.1,> 200,> 200
"C=CC[C@H]1COC(=O)N1c1noc2c(F)c3c(cc12)CC1(C(=O)NC(=O)NC1=O)[C@H]1[C@H](C)O[C@H](C)CN31 [Example 25, (2R,4S,4aS)-8-((S)-4-Allyl-2-oxooxazolidin-3-yl)-11-fluoro-2,4-dimethyl-2,4,4a,6-tetrahydro-1H,1′H-spiro[isoxazolo[4,5-g][1,4]oxazino[4,3-a]quinoline-5,5′-pyrimidine]-2′,4′,6′(3′H)-trione]",260,0.78,0.78,0.39,0.39,1.6,0.78,12,0.78,> 200,200

# Reference: US8889671B2, “Compounds and methods for treating bacterial infections” (AstraZeneca AB, priority 2013, dated 2014)
